Measurements reported in patent US5886142A, “Radiolabeled thrombus imaging agents” (Thomas Jefferson University, priority 1997, dated 1999).
Each block holds one substance with its values, some of them ahead of it. Positions of bridges follow the written chain, without caps; N, C: chain ends. Non-standard residues stand in square brackets, D forms with d. No end group written: not given here. *: point of attachment. GABA = NCCCC(=O)O; Acm = CC(=O)NC*

Experiments:
activated platelets = experiment: Binding of Tc-99m labeled peptide to activated platelets; design: species or system human; conditions: 6 i.u. thrombin, 22° C., 15 minutes
Procedure: The labeled cyclized peptide was then assayed for its ability to bind to resting and activated platelets. The platelets used in this assay were obtained from healthy human volunteers. Platelets (0.5 ml; 0.7×10^9 platelets), which were stored in a salt balanced medium for up to four days and 20 μl of the technetium labeled cyclized peptide (approximately 1.9×10^-3 mg) were dispensed into each of six test tubes. To activate the platelets, 6 i.u. of thrombin was added to three of the tubes and gently mixed until a visible clot was formed. The remaining three tubes (absent thrombin) served as controls, i.e., resting platelets. The tubes were held at 22° C. for 15 minutes and then centrifuged at 2000 g for 10 minutes. The supernatant was separated and the platelets washed with 0.9% NaCl and centrifuged again at 2000 g for 10 minutes. Radioactivity in the supernatant and washings combined, and that associated with the platelet samples, was counted and the percentage of radiolabeled platelets in each tube was determined. […]
A thrombus imaging agent, i.e., the composition of SEQ ID NO: 7 labeled with Tc-99m, was assayed for its ability to bind to resting and activated platelets. […] Radioactivity in the supernatant and washings combined, and that associated with the platelet samples, was counted and the percentage of radiolabeled platelets in each tube was determined.

[1] = test system: CD36 transfected Jurkat cells; conditions: radioiodinated (I-125); cited from earlier work
MDA-231 cells = experiment: Cell adhesion assay (method of Tuszynski et al.); type: cell-based; conditions: not radiolabeled; peptide dried in microtiter wells, one hour incubation
Procedure: Using the method of Tuszynski et al. J. Cell Biol. 1992, 116, 209-221, the hexapeptide Cys Ser Val Thr Cys Gly (SEQ ID NO: 4) and fibrinectin were used as controls, and the composition of SEQ ID NO: 7, as a test peptide. None of the peptides or fibrinectin were radiolabeled. Fifty μl of a […] saline solution of the peptide or protein was air dried overnight in wells of a microtiter plate. After drying, the wells were blocked with 50 μl of BSA for 30 minutes and washed with Hepes-bufferedsaline. The wells were incubated for one hour with a titer of 3.3×10^4 MDA-231 cells in 100 μl of Hepes-buffered saline containing 5 mM glucose, 1 mM MgCl2 and 1 mM CaCl2. The wells were washed once with PBS and adherent cells were fixed with 3% glutaraldehyde and stained with Giemsa overnight. The total number of adherent cells were counted under light microscopy.

four tumor cell lines = conditions: cited from earlier work
platelets = conditions: cited from earlier work
pre-formed clots = experiment: Binding to pre-formed human blood clots in vitro; conditions: thrombin 15 minutes prior to addition of the agent
Procedure: (§1) In several 1 ml syringes, approximately 0.7 ml of blood was drawn, without any anti-coagulant, from a healthy human volunteer. In four of the syringes, approximately 2 μCi of the thrombus imaging agent was added and mixed, and followed by the addition of 15 i.u. units of thrombin and mixed again. Clots were allowed to form for 15 minutes at 22° C. The fluid was expelled and reserved, and the clots were washed with 0.9% NaCl. The wash was combined with the reserved expelled fluid. The clots, still in the syringe, were placed over a gamma camera (GE 300 STARCAM) and imaged for a combined total count of 35,000. The forming clots were expelled from the syringes, collected in four separate test tubes, and placed in a gamma counter (Packard 5000 series) together with the previously reserved expelled liquid for each respective sample. The percentage of radioactivity associated with each clot was determined.
In the four remaining test tubes, thrombin was added and allowed to incubate for 15 minutes, prior to the addition of the thrombus imaging agent. The pre-formed clots were treated as described above and measured for radioactivity

resting platelets = experiment: Binding of thrombus imaging agent to resting platelets; design: species or system human; conditions: absent thrombin, 22° C., 15 minutes
Procedure: A thrombus imaging agent, i.e., the composition of SEQ ID NO: 7 labeled with Tc-99m, was assayed for its ability to bind to resting and activated platelets. Again, the platelets used in this assay were obtained from healthy volunteers. Platelets (0.5 ml; 0.7×10^9 platelets), which were stored for up to four days and 20 μl of the thrombus imaging agent (~1.9×10^-3 μg) were dispensed into each of six test tubes. To activate the platelets, 6 i.u. of thrombin was added to three of the tubes and gently mixed until a visible clot was formed. The remaining three tubes (absent thrombin) served as controls (i.e., resting platelets). The tubes were held at 22° C. for 15 minutes and then centrifuged at 2000 g for 10 minutes. The supernatant was separated and the platelets washed with 0.9% NaCl and centrifuged again at 2000 g for 10 minutes. Radioactivity in the supernatant and washings combined, and that associated with the platelet samples, was counted and the percentage of radiolabeled platelets in each tube was determined.

[2] = test system: thrombus in femoral artery; experiment: Gamma camera imaging of experimental arterial thrombus in vivo; design: species or system New Zealand white albino rabbit; conditions: rabbit, intravenous, gamma camera image 15 minutes after administration (FIG. 6)
Source text: An experimental clot was induced in a femoral artery of a rabbit and imaged by scintigraphy.
A New Zealand white albino rabbit (3.5 kg) was anesthetized with a mixture of ketamine/zylaxine and placed in the supine position on an x-ray table. The animal was not heparinized. A small incision was made in the neck to expose the right carotid artery; a catheter inserted and with the assistance of a guidewire and a fluoroscope, the catheter was advanced in the left femoral artery. […] The puncture was confirmed when contrast agent was injected. A 3 mm×2 cm thrombogenic coil (Cooks Inc., Bloomington, Ind.) was placed in the catheter, and with the help of the guidewire was lodged in the left femoral artery above the hip joint, near the bladder (FIG. 5B).
Approximately 25 minutes after the insertion of the catheter and coil, 2.4 μCi (10 μg) of the thrombus imaging agent was injected intravenously into the animal and serial gamma camera images were obtained.

forming clots = experiment: Binding to forming human blood clots in vitro
Procedure: as §1, with “Clots were allowed to form for 15 minutes at 22° C.” left out
Images of these (broken) clots are shown in FIG. 4C, in which 51±1.2% of the added radiolabel was taken up. The increasing uptake of the thrombus imaging agent over a prolonged period of time in a forming clot in vitro is analogous to the situation in patients in whom clots continue to form slowly for a long period of time.

[3] = design: species or system New Zealand white rabbit; conditions: rabbit, in vivo, iv
Procedure: Alternatively, the stability of the thrombus imaging agent was determined by comparing an HPLC elution plot of the radiolabeled composition (SEQ ID NO: 7) and of the radioactivity excreted in the urine of the rabbit given the thrombus imaging agent four hours previously. For the in vivo analysis, a preparation containing the radiolabeled composition (SEQ ID NO: 7) was injected intravenously into a New Zealand white rabbit. Urine was collected from the rabbit at four hours post-injection and a 20 μl portion of which was analyzed by HPLC as described above. The animal had not voided prior to collection of this sample.

[4] = In vitro stability of the thrombus imaging agent by periodic HPLC; type: physicochemical; conditions: up to 18 hours after preparation
Procedure: The purity of the product was examined by HPLC (Rainin, Emeryville, Calif.) using a reverse phase C-18 column and gradient solvents of 0.1% TFA in water (solvent A) and 0.1% TFA in acetonitrile (solvent B). The gradient was such that at zero minutes, solvent A was 30%, reaching to […] 100% in 30 minutes. The flow rate was 1 ml/minute. The HPLC was equipped with a u.v. detector set at 278 nm, a 2" NaI (Tl) gamma counter and a rate meter. The radiolabeled composition (SEQ ID NO: 7), the thrombus imaging agent, was eluted at retention time 9.3 minutes, and the unbounded technetium at 3.7 minutes.
The in vitro stability of the thrombus imaging agent was examined for up to 18 hours after preparation.

Substance: labeled cyclized peptide: cyclized peptide Cys Ser Val Thr Cys Gly (SEQ ID NO: 4) directly labeled with Tc-99m at sulfhydryl moieties (CSVTCG; also: cyclized, kind not given here, directly labeled with Tc-99m at sulfhydryl moieties)
added radiolabel bound to activated platelets (activated platelets): < 2%

Substance: YCSVTCG (cysteine pairing not given here) [SEQ ID NO: 3]
binding to CD36 transfected Jurkat cells [1]: binds strongly

Substance: Gly (D)Ala Gly Gly Aba Tyr Cys(Acm) Ser Val Thr Cys(Acm) Gly (G[dA]GG[GABA]YC(Acm)SVTC(Acm)G) [SEQ ID NO: 7]
lower cell adhesion as compared to fibronectin (MDA-231 cells): approximately 17%
proportion of cells demonstrating cell adhesion, test peptide versus hexapeptide (SEQ ID NO: 4) (MDA-231 cells): No statistical difference

Substance: cyclic form: cyclic form of SEQ ID NO: 4 in which two cysteine residues are cyclized (CSVTCG; disulfide 1-5 (inferred))
binding to four tumor cell lines relative to the native sequence (four tumor cell lines): approximately to the same extent as the native sequence
effect on ADP-induced platelet aggregation (platelets): inhibited ADP-induced platelet aggregation

radioactivity level measured in the preformed clots (pre-formed clots): 6.4±3.2%
radioactivity level measured in the forming clot (forming clots; agent added before thrombin, 15 minutes at 22° C.): 27.6±0.2%
added radiolabel taken up by forming clots (forming clots; incubated for 2 hours at 22° C.): 51±1.2%
Substance: thrombus imaging agent: the composition of SEQ ID NO: 7 labeled with Tc-99m (G[dA]GG[GABA]YC(Acm)SVTC(Acm)G; also: Tc-99m label)
added radiolabel bound to activated platelets (activated platelets): 12.5±1.2%
added radiolabel bound to resting platelets (resting platelets): 2.1±0.5%
uptake of radioactivity at the site of the punctured artery (clot) [2]: intense uptake of radioactivity
gamma camera images, radioactivity in forming versus preformed clots (forming clots; FIGS. 4A and 4B, qualitative): more radioactivity in the forming clots than in the preformed clots
quantity of free Tc-99m in urine versus the injected preparation [3]: substantially the same
quantity of free Tc-99m versus time of preparation [4]: had not increased

Substance: ANKHYF [SEQ ID NO: 5]
effect on ADP-induced platelet aggregation (platelets): no biological activity

Substance: VCTGSC (cysteine pairing not given here) [SEQ ID NO: 6]
effect on ADP-induced platelet aggregation (platelets): no biological activity

Substance: cysteine protected form: derivative of SEQ ID NO: 4 in which the two cysteine residues are blocked by acetaminomethyl (Acm) (C(Acm)SVTC(Acm)G)
binding to four tumor cell lines relative to the native sequence (four tumor cell lines): approximately to the same extent as the native sequence
effect on ADP-induced platelet aggregation (platelets): inhibited ADP-induced platelet aggregation
